pEC50: −log10 of the molar value. Values belong to the molecule of their own block, whether it stands above or below them.
Experiments:
GIPR = target: T1, GIPR (Homo sapiens, UniProt P48546); experiment: Schild analysis of FFA release in hMADS with GIPR antagonist; type: cell-based
T1 sequence (P48546 22-466): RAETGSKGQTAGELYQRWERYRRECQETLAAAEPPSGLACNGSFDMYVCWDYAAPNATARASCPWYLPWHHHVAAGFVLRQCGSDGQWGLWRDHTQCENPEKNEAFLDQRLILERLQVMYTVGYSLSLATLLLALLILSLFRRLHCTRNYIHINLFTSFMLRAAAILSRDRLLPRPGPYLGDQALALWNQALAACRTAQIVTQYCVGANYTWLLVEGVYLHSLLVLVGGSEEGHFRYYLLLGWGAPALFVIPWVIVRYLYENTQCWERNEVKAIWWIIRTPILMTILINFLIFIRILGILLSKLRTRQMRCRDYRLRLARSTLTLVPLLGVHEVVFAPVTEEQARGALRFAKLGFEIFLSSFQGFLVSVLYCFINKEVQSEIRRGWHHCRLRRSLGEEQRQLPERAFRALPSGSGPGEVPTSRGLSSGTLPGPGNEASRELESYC

hMADS cells = experiment: mRNA expression by RT-qPCR in hMADS; type: cell-based, human; settings: in the presence of 10 nM insulin, 24 h
[1] = healthy individuals, degradation by dipeptidyl peptidase 4; cited from earlier work
white hMADS cells = experiment: Lipolysis assay; type: cell-based, human; settings: for FFA release after pretreatment with adenylyl cyclase inhibitor SQ22536: white hMADS
[2] = target: human insulin receptor/ CD220 (28-944) protein (Homo sapiens, UniProt P06213); experiment: Surface plasmon resonance, immobilised biotinylated peptide, INSR injected; type: binding; settings: biotinylated peptide on Sensor Chip SA
Chain of human insulin receptor/ CD220 (28-944) protein (P06213 28-944 isoform P06213-2): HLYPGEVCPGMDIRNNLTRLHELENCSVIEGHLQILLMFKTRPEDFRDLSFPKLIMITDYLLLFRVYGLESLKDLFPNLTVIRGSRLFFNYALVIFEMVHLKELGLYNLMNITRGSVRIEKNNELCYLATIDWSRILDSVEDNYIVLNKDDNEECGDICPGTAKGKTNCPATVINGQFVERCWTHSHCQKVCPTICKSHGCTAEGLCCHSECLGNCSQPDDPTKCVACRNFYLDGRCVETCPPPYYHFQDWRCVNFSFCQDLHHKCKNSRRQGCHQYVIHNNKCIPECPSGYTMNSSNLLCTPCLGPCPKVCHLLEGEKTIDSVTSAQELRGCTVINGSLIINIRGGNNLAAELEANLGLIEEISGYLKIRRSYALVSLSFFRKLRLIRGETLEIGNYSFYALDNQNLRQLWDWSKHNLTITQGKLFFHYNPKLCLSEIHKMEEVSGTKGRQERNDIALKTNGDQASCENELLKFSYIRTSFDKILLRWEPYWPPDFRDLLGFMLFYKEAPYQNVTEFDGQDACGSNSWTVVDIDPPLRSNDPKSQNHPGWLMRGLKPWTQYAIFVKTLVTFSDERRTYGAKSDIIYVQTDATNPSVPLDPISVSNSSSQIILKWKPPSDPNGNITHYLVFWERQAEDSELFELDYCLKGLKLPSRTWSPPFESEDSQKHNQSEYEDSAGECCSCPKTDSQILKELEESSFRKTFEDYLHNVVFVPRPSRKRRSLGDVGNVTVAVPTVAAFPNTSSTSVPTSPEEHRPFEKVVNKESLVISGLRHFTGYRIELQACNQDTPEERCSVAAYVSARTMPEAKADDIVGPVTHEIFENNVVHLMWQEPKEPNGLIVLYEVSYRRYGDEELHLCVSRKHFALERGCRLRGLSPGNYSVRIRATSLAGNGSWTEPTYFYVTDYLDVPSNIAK

effect on lipolysis induced by 1 µM isoprenaline (GIPR): remains unchanged
Molecule: CCCCCCCCCCCCCCCC(=O)N[C@@H](CCC(=O)NCCCC[C@H](NC(=O)[C@H](Cc1ccc(O)cc1)NC(=O)[C@H](CC(=O)O)NC(=O)[C@H](CO)NC(=O)[C@@H](NC(=O)[C@H](Cc1ccccc1)NC(=O)[C@@H](NC(C)=O)[C@@H](C)O)[C@@H](C)CC)C(=O)N[C@H](C(=O)N[C@@H](C)C(=O)N[C@@H](CC(C)C)C(=O)N[C@@H](CC(=O)O)C(=O)N[C@@H](CCCCN)C(=O)N[C@H](C(=O)N[C@@H](CCCNC(=N)N)C(=O)N[C@@H](CCC(N)=O)C(=O)N[C@@H](CCC(N)=O)C(=O)N[C@@H](CCC(=O)O)C(=O)N[C@@H](Cc1ccccc1)C(=O)N[C@H](C(=O)N[C@@H](CC(N)=O)C(=O)N[C@@H](Cc1c[nH]c2ccccc12)C(=O)N[C@@H](CC(C)C)C(=O)N[C@@H](CC(C)C)C(=O)N[C@@H](C)C(=O)N[C@@H](CCC(N)=O)C(=O)N[C@@H](CCCCN)C(=O)NCC(N)=O)C(C)C)[C@@H](C)CC)[C@@H](C)CC)C(=O)O [GIPR antagonist]

Molecule: COc1cc([C@@H]2c3cc4c(cc3[C@H](O)[C@H]3COC(=O)[C@@H]23)OCO4)cc(OC)c1OC [PPP, Picropodophyllin]
expression of FASN (hMADS cells): significantly lower

pEC50 (white hMADS cells; read-out: EC50, FFA release read-out, hMADS cells): 8.96
Molecule: CC[C@H](C)[C@H](NC(=O)[C@H](CO)NC(=O)[C@H](Cc1ccc(O)cc1)NC(=O)[C@H](CC(=O)O)NC(=O)[C@H](CO)NC(=O)[C@@H](NC(=O)[C@H](Cc1ccccc1)NC(=O)[C@@H](NC(=O)CNC(=O)[C@H](CCC(=O)O)NC(=O)[C@H](C)NC(=O)[C@@H](N)Cc1ccc(O)cc1)[C@@H](C)O)[C@@H](C)CC)C(=O)N[C@@H](C)C(=O)N[C@@H](CCSC)C(=O)N[C@@H](CC(=O)O)C(=O)N[C@@H](CCCCN)C(=O)N[C@H](C(=O)N[C@@H](Cc1c[nH]cn1)C(=O)N[C@@H](CCC(N)=O)C(=O)N[C@@H](CCC(N)=O)C(=O)N[C@@H](CC(=O)O)C(=O)N[C@@H](Cc1ccccc1)C(=O)N[C@H](C(=O)N[C@@H](CC(N)=O)C(=O)N[C@@H](Cc1c[nH]c2ccccc12)C(=O)N[C@@H](CC(C)C)C(=O)N[C@@H](CC(C)C)C(=O)N[C@@H](C)C(=O)N[C@@H](CCC(N)=O)C(=O)N[C@@H](CCCCN)C(=O)NCC(=O)N[C@@H](CCCCN)C(=O)N[C@@H](CCCCN)C(=O)N[C@@H](CC(N)=O)C(=O)N[C@@H](CC(=O)O)C(=O)N[C@@H](Cc1c[nH]c2ccccc12)C(=O)N[C@@H](CCCCN)C(=O)N[C@@H](Cc1c[nH]cn1)C(=O)N[C@@H](CC(N)=O)C(=O)N[C@H](C(=O)N[C@H](C(=O)N[C@@H](CCC(N)=O)C(=O)O)[C@@H](C)O)[C@@H](C)CC)C(C)C)[C@@H](C)CC [hGIP]
half-life [1]: approximately 7 minutes
FFA release in hMADS treated with GIPR siRNA vs siNC (white hMADS cells; GIPR knockdown approximately 40%): significantly reduced

Molecule: CC(C)NCC(O)c1ccc(O)c(O)c1 (centres unmarked) [isoprenaline]
FFA release after pretreatment with adenylyl cyclase inhibitor SQ22536 (white hMADS cells): inhibited

binding of insulin receptor to immobilised peptide [2]: does not exhibit binding
Molecule: Ac-PKMVPQFNTELKIFPEVNIK-NH2 [SP34]

Molecule: brain natriuretic peptide [BNP]
FFA release after pretreatment with adenylyl cyclase inhibitor SQ22536 (white hMADS cells): remains unaffected
